Reference: patent US20260345603A1, “PRMT5 INHIBITORS” (Beijing Earthwise Technology Co., Ltd., priority 2022, published 2026)
Where two headings read alike, the source gives them in different places.

System: HCT116^MTAP Deletion cells
Experiment: Anti-proliferation assay on cells (CTG, 10 days), HCT116 MTAP Deletion
Type: cell-based
Settings: anti-proliferative activity, HCT116 MTAP Deletion, 10 days, class symbols, read-out: HCT116^MTAP Deletion GI50
Procedure: HCT116^MTAD Deletion cells were from Pharmaron (China); HCT116 cells were from ATCC; McCoy's 5A medium was purchased from Invitrogen (USA); penicillin-streptomycin and fetal bovine serum were purchased from Gibco (USA); a 384-well plate was purchased from PerkinElmer (USA); and Cell-Titer Glo reagent was purchased from Promega (USA).
Compound dissolution: All the compounds were dissolved in dimethyl sulfoxide (DMSO) and then stored. The compounds were stored at room temperature in a dry condition for 3 months for short term storage or at −20 °C for long term storage.
The cells were cultured strictly in accordance with ATCC requirements. The cell culture medium (McCoy's 5A medium+10% fetal bovine serum+1% penicillin+streptomycin) was transferred to a 15 mL centrifuge tube and centrifuged at 1000 rpm for 5 min. The supernatant was removed. The cells were resuspended with complete culture medium, inoculated into a culture dish at the required density, and cultured in an incubator at 37 °C, 95% humid air, and 5% carbon dioxide. The culture medium was replenished or the cells were passaged every 2-3 days depending on the cell growth condition.
When the confluency of cells in the culture dish reached about 90%, the cells were washed twice with PBS, and then treated with trypsin to become single cells. The cells were counted, and 40 μl of the cells was inoculated into each well of a 384-well plate (50 cells/well). The plate was equilibrated at 37 °C and 5% carbon dioxide for 10 to 15 minutes. The compounds were injected into the 384-well plate using Echo550, and positive control and negative control (0.1% DMSO) were set up. Each compound was subjected to a 3-fold dilution, resulting in 10 concentration gradients, in duplicate, and the content of DMSO was 0.1%. The 384-well plate was incubated in a cell culture incubator for 10 days.
Then, 40 μl of cell proliferation assay reagent (CTG) was added to the 384-well plate, and the plate was shaken to mix well. Then, the 384-well plate was incubated at 37 °C and 5% carbon dioxide in the dark for 30 minutes. The data were read using the Envision multifunctional microplate reader. […] According to the different drug concentrations and their corresponding inhibition rates, the GI50 curve was drawn using GraphPad 8.0 software. The data were analyzed, and the final GI50 value was obtained.

Row | Structure (SMILES) | GI50 (Homo sapiens, HCT-116, 240 h) [nM] | GI50 [nM]
1 | Cc1cc(NC(=O)C(=O)N(Cc2ccc(C(F)(F)F)cn2)C2CCC2)cnc1N [Example 13] | 100 to 1000 | 
2 | Cc1cc(NC(=O)C(=O)N(Cc2ccc(C(F)(F)F)cn2)CC2CC2)cnc1N [Example 15] | 10 to 100 | 
3 | Cc1cc(NC(=O)C(=O)N(Cc2ccc(C(F)(F)F)cn2)CC2CCC2)cnc1N [Example 16] | 10 to 100 | 
4 | Cc1cc(NC(=O)C(=O)N(Cc2ccc(C(F)(F)F)cn2)CC2CCCC2)cnc1N [Example 17] | 10 to 100 | 
5 | Cc1cc(NC(=O)C(=O)N(Cc2ccc(C(F)(F)F)cn2)c2cnn(C)c2)cnc1N [Example 18] | 100 to 1000 | 
6 | CCc1cc(NC(=O)C(=O)N(Cc2ccc(C(F)(F)F)cn2)[C@H](C)c2ncccn2)cnc1N [Example 21] | 100 to 1000 | 
7 | C[C@H](c1ncccn1)N(Cc1ccc(C(F)(F)F)cn1)C(=O)C(=O)Nc1cnc(N)c(F)c1 [Example 22] | 1000 to 10000 | 
8 | C[C@H](c1ncccn1)N(Cc1ccc(C(F)(F)F)cn1)C(=O)C(=O)Nc1cnc(N)c(Cl)c1 [Example 23] | 1000 to 10000 | 
9 | C[C@H](c1ncccn1)N(Cc1ccc(C(F)(F)F)cn1)C(=O)C(=O)Nc1cnc(N)c(Br)c1 [Example 24] | 100 to 1000 | 
10 | COc1ncc(NC(=O)C(=O)N(Cc2ccc(C(F)(F)F)cn2)[C@H](C)c2ncccn2)cc1C(N)=O [Example 25] | 10 to 100 | 
11 | Cc1cc(N)ncc1NC(=O)C(=O)N(Cc1ccc(C(F)(F)F)cn1)[C@H](C)c1ncccn1 [Example 26] | 100 to 1000 | 
12 | Cc1nc(NC(=O)C(=O)N(Cc2ccc(C(F)(F)F)cn2)[C@H](C)c2ncccn2)cnc1N [Example 27] | 100 to 1000 | 
13 | Cc1cc(NC(=O)C(=O)N(Cc2ccc(C#N)cn2)[C@H](C)c2ncccn2)cnc1N [Example 28] | 1000 to 10000 | 
14 | Cc1cc(NC(=O)C(=O)N(Cc2ccc(N3CCC(F)(F)C3)cn2)[C@H](C)c2ncccn2)cnc1N [Example 29] | 100 to 1000 | 
15 | C[C@H](c1ncccn1)N(Cc1ccc(C(F)(F)F)cn1)C(=O)C(=O)Nc1cnc(N)c2c1cnn2C [Example 30] | 10 to 100 | 
16 | C[C@H](c1ncccn1)N(Cc1ccc(C(F)(F)F)cn1)C(=O)C(=O)Nc1cnc(N)c2c1CCCC2 [Example 31] | 100 to 1000 | 

Row | Structure (SMILES) | GI50 (Homo sapiens, HCT-116, 240 h) [nM] | GI50 [nM]
17 | C[C@H](c1ncccn1)N(Cc1ccc(C(F)(F)F)cn1)C(=O)C(=O)Nc1cnc(N)c2ccncc12 [Example 32] | 100 to 1000 | 
18 | CCOc1ccc(CN(C(=O)C(=O)Nc2cnc(N)c(C)c2)[C@H](C)c2ncccn2)nn1 [Example 35] | 10 to 100 | 
19 | Cc1cc(NC(=O)C(=O)N(Cc2ccc(C(F)(F)F)cn2)[C@H](C)C2CC2)cnc1N [Example 36] | 10 to 100 | 
20 | Cc1cc(NC(=O)C(=O)N(Cc2ccc(C(F)(F)F)cn2)CC(C)C)cnc1N [Example 37] | 10 to 100 | 
21 | C[C@H](c1ncccn1)N(Cc1ccc(C(F)(F)F)cn1)C(=O)C(=O)Nc1cnc(N)c2cncn12 [Example 38] | > 10000 | 
22 | C[C@H](C1CC1)N(Cc1ccc(C(F)(F)F)cn1)C(=O)C(=O)Nc1cnc(N)c2c1COC2 [Example 39] | 100 to 1000 | 
23 | Nc1ncc(NC(=O)C(=O)N(Cc2ccc(C(F)(F)F)cn2)CC2CC2)c2c1COC2 [Example 40] | 100 to 1000 | 
24 | Nc1ncc(NC(=O)C(=O)N(Cc2ccc(C(F)(F)F)cn2)CC2CCC2)c2c1COC2 [Example 41] | 100 to 1000 | 
25 | Cc1cc(NC(=O)C(=O)N(Cc2ccc(C3=CCOCC3)nn2)[C@H](C)c2ncccn2)cnc1N [Example 42] | 100 to 1000 | 
26 | Cn1ncc2c(NC(=O)C(=O)N(Cc3ccc(C(F)(F)F)cn3)CC3CC3)cnc(N)c21 [Example 43] | ≤ 10 | 
27 | CC(c1cscn1)N(Cc1ccc(C(F)(F)F)cn1)C(=O)C(=O)Nc1cnc(N)c2c1cnn2C (stereo not shown) [Example 44] | 10 to 100 | 
28 | CCC(C)N(Cc1ccc(C(F)(F)F)cn1)C(=O)C(=O)Nc1cnc(N)c2c1cnn2C (stereo not shown) [Example 46-P2] | 10 to 100 | 
29 | CCC(C)N(Cc1ccc(C(F)(F)F)cn1)C(=O)C(=O)Nc1cnc(N)c2c1cnn2C (stereo not shown) [Example 52] |  | ≤ 10
30 | CCC(C)N(Cc1ccc(OCC(F)(F)F)nn1)C(=O)C(=O)Nc1cnc(N)c(C)c1 (stereo not shown) [Example 63] | 100 to 1000 | 
31 | CCC(C)N(Cc1cnn(C)c1)C(=O)C(=O)Nc1cnc(N)c(C)c1 (stereo not shown) [Example 73] | > 10000 | 
